Results published in patent US10294488B2, “Herbicide-metabolizing cytochrome P450 monooxygenases” (BASF SE, priority 2012, dated 2019).

Assays:
[1] = test system: transgenic plants expressing Am_CYP03 (SEQ ID 4); test: Greenhouse herbicide tolerance of transgenic plants expressing Am_CYP03 (FIG. 1); format: in vivo, Arabidopsis thaliana; conditions: plants expressing Am_CYP03 (SEQ ID 4) vs wildtype, different application rates (g/ha)
Experimental: (§1) Transgenic Arabidopsis thaliana plants were assayed for improved tolerance to saflufenacil, 1,5-dimethyl-6-thioxo-3-(2,2,7-trifluoro-3-oxo-4-(prop-2-ynyl)-3,4-dihydro-2H-benzo[b][1,4]oxazin-6-yl)-1,3,5-triazinane-2,4-dione (CAS 1258836-72-4), chlorotoluron, pendimethalin, flumioxazin, butafenacil, acifluorfen, lactofen, bifenox, diuron, sulfentrazon, tepraloxydim, coumarone-derivative herbicides, azine-derivative herbicides in 48-well plates. Therefore, T2 seeds are surface sterilized by stirring for 5 min in ethanol+water (70+30 by volume), rinsing one time with ethanol+water (70+30 by volume) and two times with sterile, deionized water. The seeds are resuspended in 0.1% agar dissolved in water (w/v) Four to five seeds per well are plated on solid nutrient medium consisting of half-strength murashige skoog nutrient solution, pH 5.8 (Murashige and Skoog (1962) Physiologia Plantarum 15: 473-497). Compounds are dissolved in dimethylsulfoxid (DMSO) and added to the medium prior solidification (final DMSO concentration 0.1%). Multi well plates are incubated in a growth chamber at 22° C., 75% relative humidity and 110 μmol Phot*m^2*s^−1 with 14:10 h light: dark photoperiod. Growth inhibition is evaluated seven to ten days after seeding in comparison to wild type plants. Additionally, transgenic T1 Arabidopsis plants were tested for improved tolerance to herbicides in greenhouse studies with the following herbicides: saflufenacil, 1,5-dimethyl-6-thioxo-3-(2,2,7-trifluoro-3-oxo-4-(prop-2-ynyl)-3,4-dihydro-2H-benzo[b][1,4]oxazin-6-yl)-1,3,5-triazinane-2,4-dione (CAS 1258836-72-4), chlorotoluron, pendimethalin, flumioxazin, butafenacil, acifluorfen, lactofen, bifenox, diuron, sulfentrazone, tepraloxydim, coumarone-derivative herbicides, azine-derivative herbicides.

[2] = test system: transgenic plants expressing Am_CYP04 (SEQ ID 27); test: Greenhouse herbicide tolerance of transgenic plants expressing Am_CYP04 (FIG. 2); format: in vivo, Arabidopsis thaliana; conditions: plants expressing Am_CYP04 (SEQ ID 27) vs wildtype, different application rates (g/ha)
Experimental: as §1

AmCYP12_1 (Seq ID 45) = test: Herbicide degradation in transgenic yeast cells expressing cytochrome P450 AmCYP12_1; format: in vitro ADME, Alopecurus myosuroides; conditions: transgenic yeast cells (S. cerevisiae BJ5459) expressing AmCYP12_1, Seq ID 45, recovery of herbicide in reference to control, UPLC-MS/MS
Text: (§2) The cDNA of CYP450 monooxygenase genes were synthesized with an optimized codon usage for yeast, cloned via uniqueBamHI-SalI restriction sites in the low copy pESC-ura expression vector (Agilent Technologies). Constructs were transformed into S. cerevisiae wild type strain BJ5459 (MATa ura3-5 trp lys2-801 leu2Δ1 his3Δ200 pep4Δ::HIS3 prb1Δ1.6R can1 GAL cir^+; ATCC 208284) using a Yeast Maker Transformation System from Clontech and verified by colony PCR. Positive clones were selected on minimal synthetic-defined media (SD) supplemented with appropriate dropout solution. The strain had no obvious phenotypes. Cells were induced in SG-Ura medium (same composition as SD but with galactose instead of glucose) for 24 h (Pompon et al., Methods in Enzymology 272:51-64 (1996); Urban et al., Eur. J. Biochem. 222:[…] (1994)). Optimal heterologous protein expression was assayed using Western Blot analysis.
(§3) 96 deep well growth plates (STARLAB GmbH) charged with 700 μL SDA medium are inoculated with the respective yeast strains from cryostock and incubated at 30° C., 400 rpm. After 48 h, an aliquot is transferred into a new plate with fresh SDA medium 400 rpm. After 4 h the cultures are spun down, the supernatant discarded and the pellets resuspended in 700 μL pre-warmed SGA media to induce protein expression at 30° C. and 400 rpm. After an incubation time of 24 h, 7 μL herbicide solution (500 μM DMSO stock solution) or solvent control is added to the yeast culture incubated for additional 24 h. The herbicide conversion is stopped by adding 700 μL acetonitrile followed by ultrasonification. The homogenate is prepared for UPLC-MS/MS analysis. The degradation rate was calculated by the determination of the recovery of the herbicide in reference to the control.

AmCYP03_1 (Seq ID 4) = test: Herbicide degradation in transgenic yeast cells expressing cytochrome P450 AmCYP03_1; format: in vitro ADME, Alopecurus myosuroides; conditions: transgenic yeast cells (S. cerevisiae BJ5459) expressing AmCYP03_1, Seq ID 4, recovery of herbicide in reference to control, UPLC-MS/MS
Text: as §2, §3

AmCYP01 (Seq ID 2) = test: Herbicide degradation in transgenic yeast cells expressing cytochrome P450 AmCYP01; format: in vitro ADME, Alopecurus myosuroides; conditions: transgenic yeast cells (S. cerevisiae BJ5459) expressing AmCYP01, Seq ID 2, recovery of herbicide in reference to control, UPLC-MS/MS
Text: as §2, §3

AmCYP04 (Seq ID 27) = test: Herbicide degradation in transgenic yeast cells expressing cytochrome P450 AmCYP04; format: in vitro ADME, Alopecurus myosuroides; conditions: transgenic yeast cells (S. cerevisiae BJ5459) expressing AmCYP04, Seq ID 27, recovery of herbicide in reference to control, UPLC-MS/MS
Text: as §2, §3

AmCYP03b (Seq ID 6) = test: Herbicide degradation in transgenic yeast cells expressing cytochrome P450 AmCYP03b; format: in vitro ADME, Alopecurus myosuroides; conditions: transgenic yeast cells (S. cerevisiae BJ5459) expressing AmCYP03b, recovery of herbicide in reference to control, UPLC-MS/MS
Text: as §2, §3

Compound | Phenotype (injury) of transgenic plants compared to non-transgenic plants [1] | Phenotype (injury) of transgenic plants compared to non-transgenic plants [2] | Degradation rate of listed herbicidal compounds within 24 h (AmCYP12_1 (Seq ID 45)) | Degradation rate of listed herbicidal compounds within 24 h (AmCYP03_1 (Seq ID 4)) | Degradation rate of listed herbicidal compounds within 24 h (AmCYP01 (Seq ID 2)) | Degradation rate of listed herbicidal compounds within 24 h (AmCYP04 (Seq ID 27)) | Degradation rate of listed herbicidal compounds within 24 h (AmCYP03b (Seq ID 6))
CC(C)N(C)S(=O)(=O)NC(=O)c1cc(-n2c(=O)cc(C(F)(F)F)n(C)c2=O)c(F)cc1Cl [saflufenacil, reference compound] | much less injured | much less injured | 20 | 10 | 20 | 18 | 9
Cc1ccc(NC(=O)N(C)C)cc1Cl [Chlorotoluron, reference compound] | much less injured | much less injured | 22 | 32 | 18 | 26 | 29
